For assay [1], the target named is T1, Mdm2/p53 binding (GST-Mdm2 / His-p53) (Homo sapiens, UniProt Q00987, L33E).
T1 construct: Mdm2 partial protein having Mdm2 amino acids at positions 25 to 108
The assay is described as follows: Mdm2/p53 binding assay (HTRF, His-p53 and GST-Mdm2). The following applies: His-p53 (aa 1-132) and GST-Mdm2 (aa 25-108, L33E) 6.25 nM each; 25°C, 1 hour; values given as ranges. An outline of the steps:
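Binding was detected by HTRF (ex 320 nm, em 620/665 nm) after 1 h at 25 °C, using Eu-cryptate anti-GST and XL665 anti-His antibodies. The protein pair was GST-Mdm2 (residues 25–108, L33E) with His-p53 (residues 1–132), each 6.25 nM in the protein dilution. T/C used no-compound control and no-p53 background, and IC50 came from sigmoid fitting.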

The test system of assay [2] is human lung cancer-derived cell line NCI-H460 having wild-type p53. The assay is described as follows: Cell growth inhibition assay (MTT). Type of assay: cell-based. The settings on record: 72 h, NCI-H460 cells, 3 days culture, values given as ranges, read-out: 50% growth inhibition concentration (GI50 value). On the procedure: A cell growth inhibition assay was conducted using a human lung cancer-derived cell line NCI-H460 having wild-type p53.
NCI-H460 cells were suspended in a medium (RPMI1640 medium containing 10% fetal bovine serum) and the suspension was added in an amount of 500 cells/150 μl/well to a 96-well plate. A test compound was dissolved in DMSO and this solution was diluted with medium to prepare a sample solution (DMSO concentration: 1% or lower). On the next day, medium nonsupplemented with the test compound, or the sample solution, was added in an amount of 50 μl/well. Cells were then cultured at 37° ° C. for 3 days in a 5% CO2 atmosphere.
An MTT assay was conducted immediately after the nonsupplemented medium or the sample solution was added. Another MTT assay was conducted after culturing the cells for 3 days. The MIT assays were conducted as shown below.
A 5 mg/ml MTT (3-(4,5-dimethylthiazol-2-yl)-2,5-diphenyltetrazolium bromide, Sigma-Aldrich Co., M-2128) solution was prepared using a phosphate buffer solution (Dulbecco's Phosphate-buffered Saline). This MIT solution was added in an amount of 20 μl/well. Then the plate was cultured at 37° ° C. for 4 hours in a 5% CO2 atmosphere. The plate was centrifuged at 1200 rpm for 5 minutes and then the culture supernatant was removed by aspiration using a dispenser. DMSO was added in an amount of 150 μl/well to dissolve generated formazan. The plate was stirred using a plate mixer for uniform color development from each well. The absorbance of each well was measured at OD 540 nm and at a reference OD (660 nm) using a plate reader (SpectraMax PLUS384, Molecular Devices, CA, USA).
The OD value measured on the day of adding the sample solution was defined as S. The OD value measured three days after addition of the sample solution was defined as T. The OD value measured three days after addition of the DMSO dilution was defined as C. T/C (%) was determined at each concentration according to the formula shown below in order to prepare a dose response curve, from which 50% growth inhibition concentration (GI50 value) was calculated.

T1 sequence (Q00987 25-108 L33E): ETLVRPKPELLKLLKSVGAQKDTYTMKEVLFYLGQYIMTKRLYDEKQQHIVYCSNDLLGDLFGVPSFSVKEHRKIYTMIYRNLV

In assay [1], `CN(C)C(=O)[C@H]1C[C@H](NC(=O)[C@@H]2NC3(CCC(C)(C)CC3)[C@@]3(C(=O)Nc4cc(Cl)ccc43)[C@H]2c2ccnc(Cl)c2F)C1` [Example 115, (3′R, 4′S,5′R)-6″-chloro-4′-(2-chloro-3-fluoropyridin-4-yl)-N-[trans-3-(dimethylcarbamoyl)cyclobutyl]-4,4-dimethyl-2″-oxo-1″,2″-dihydrodispiro[cyclohexane-1,2′-pyrrolidine-3′,3″-indole]-5′-carboxamide] showed an IC50 of 1 to 50 nM. In assay [2], the GI50 was in the range of 100 to 500 nM.
For `CC(C)NC(=O)[C@@H]1CC[C@@H](NC(=O)[C@@H]2NC3(CCC(C)(C)CC3)[C@@]3(C(=O)Nc4cc(Cl)ccc43)[C@H]2c2ccnc(Cl)c2F)CO1` [Example 96, (3′R, 4′S,5′R)-6″-chloro-4′-(2-chloro-3-fluoropyridin-4-yl)-N-[(3R,6S)-6-(isopropylcarbamoyl)tetrahydro-2H-pyran-3-yl]-4,4-dimethyl-2′-oxo-1″,2″-dihydrodispiro[cyclohexane-1,2′-pyrrolidine-3′,3″-indole]-5′-carboxamide] the same measures were 50 to 100 nM and 100 to 500 nM.
For `CC1(C)CCC2(CC1)N[C@@H](C(=O)N[C@@H]1CC[C@@H](Cc3nnco3)OC1)[C@H](c1ccnc(Cl)c1F)[C@]21C(=O)Nc2cc(Cl)ccc21` [Example 161, (3′R, 4′S,5′R)-6″-chloro-4′-(2-chloro-3-fluoropyridin-4-yl)-4,4-dimethyl-N-[(3R,6S)-6-(1,3,4-oxadiazol-2-ylmethyl)tetrahydro-2H-pyran-3-yl]-2″-oxo-1″,2″-dihydrodispiro[cyclohexane-1,2′-pyrrolidine-3′,3″-indole]-5′-carboxamide] the same measures were 50 to 100 nM and 100 to 500 nM.
Take `CO[C@@H]1C[C@@H](NC(=O)[C@@H]2NC3(CCC(C)(C)CC3)[C@@]3(C(=O)Nc4cc(Cl)ccc43)[C@H]2c2ccnc(Cl)c2F)CO[C@@H]1CO` [Example 69, (3′R, 4′S,5′R)-6″-chloro-4′-(2-chloro-3-fluoropyridin-4-yl)-N-((3R,5R,6R)-6-(hydroxymethyl)-5-methoxytetrahydro-2H-pyran-3-yl)-4,4-dimethyl-2″-oxo-1″,2″-dihydrodispiro[cyclohexane-1,2′-pyrrolidine-3′,3″-indole]-5′-carboxamide]: the IC50 in assay [1] was in the range of 1 to 50 nM. Further, in assay [2], the GI50 is 100 to 500 nM.
For `CC1(C)CCC2(CC1)N[C@@H](C(=O)N[C@H]1C[C@H](c3nnco3)C1)[C@H](c1ccnc(Cl)c1F)[C@]21C(=O)Nc2cc(Cl)ccc21` [Example 112, (3′R, 4′S, S′R)-6″-chloro-4′-(2-chloro-3-fluoropyridin-4-yl)-4,4-dimethyl-N-[trans-3-(1,3,4-oxadiazol-2-yl)cyclobutyl]-2″-oxo-1″,2″-dihydrodispiro[cyclohexane-1,2′-pyrrolidine-3′,3″-indole]-5-carboxamide] the same measures were 50 to 100 nM and 100 to 500 nM.
The like results for `CN(C)C(=O)[C@@H]1CC[C@@H](NC(=O)[C@@H]2NC3(CCC(C)(C)CC3)[C@@]3(C(=O)Nc4cc(Cl)ccc43)[C@H]2c2ccnc(Cl)c2F)CO1` [Example 100, (3′R, 4′S,5′R)-6″-chloro-4′-(2-chloro-3-fluoropyridin-4-yl)-N-[(3R,6S)-6-(dimethylcarbamoyl)tetrahydro-2H-pyran-3-yl]-4,4-dimethyl-2″-oxo-1″,2″-dihydrodispiro[cyclohexane-1,2′-pyrrolidine-3′,3′″-indole]-5′-carboxamide] were, in that order, 1 to 50 nM and less than 100 nM.
The like results for `CC1(C)CCC2(CC1)N[C@@H](C(=O)N[C@@H]1CC[C@@H](C(=O)NC3CC3)OC1)[C@H](c1ccnc(Cl)c1F)[C@]21C(=O)Nc2cc(Cl)ccc21` [Example 97, (3′R, 4′S,5′R)-6″-chloro-4′-(2-chloro-3-fluoropyridin-4-yl)-N-[(3R,6S)-6-(cyclopropylcarbamoyl)tetrahydro-2H-pyran-3-yl]-4,4-dimethyl-2″-oxo-1″,2″-dihydrodispiro[cyclohexane-1,2′-pyrrolidine-3′,3″-indole]-5′-carboxamide] were, in that order, 1 to 50 nM and 100 to 500 nM.
`CC1(C)CCC2(CC1)N[C@@H](C(=O)N[C@H]1CC[C@H](O)CC1)[C@H](c1cc(F)cc(Cl)c1)[C@]21C(=O)Nc2cc(Cl)ccc21` [Example 14, (3′R, 4′R, S′R)-6″-chloro-4′-(3-chloro-5-fluorophenyl)-N-(trans-4-hydroxycyclohexyl)-4,4-dimethyl-2″-oxo-1″,2″-dihydrodispiro[cyclohexane-1,2′-pyrrolidine-3′,3″-indole]-5′-carboxamide] registered an IC50 in assay [1] of 100 to 500 nM. In addition, the GI50 in assay [2] lay in the range of 500 to 1000 nM.
For `O=C(N[C@@H]1CC[C@@H](CO)OC1)[C@@H]1NC2(CC(CF)(CF)C2)[C@@]2(C(=O)Nc3cc(Cl)ccc32)[C@H]1c1cccc(Cl)c1F` [Example 38, (3′R, 4′S,5′R)-6″-chloro-4′-(3-chloro-2-fluorophenyl)-3,3-bis(fluoromethyl)-N-[(3R,6S)-6-(hydroxymethyl)tetrahydro-2H-pyran-3-yl]-2″-oxo-1″,2″-dihydrodispiro [cyclobutane-1,2′-pyrrolidine-3′,3″-indole]-5′-carboxamide] the same measures were 1 to 50 nM and 100 to 500 nM.
Consider `CC1(C)CCC2(CC1)N[C@@H](C(=O)N[C@H]1CC[C@H](O)CC1)[C@H](c1cccc(Cl)c1F)[C@]21C(=O)Nc2cc(Cl)ccc21` (relative stereo) [Example 1, (3′R, 4′S,5′R)-6″-chloro-4′-(3-chloro-2-fluorophenyl)-N-(trans-4-hydroxycyclohexyl)-4,4-dimethyl-2″-oxo-1″,2″-dihydrodispiro[cyclohexane-1,2′-pyrrolidine-3′,3″-indole]-5′-carboxamide], for which the IC50 in assay [1] is 50 to 100 nM. In addition, the GI50 in assay [2] was 100 to 500 nM.
With `CC1(C)CCC2(CC1)N[C@@H](C(=O)N[C@@H]1CC[C@@H](C(=O)N3CCOCC3)OC1)[C@H](c1ccnc(Cl)c1F)[C@]21C(=O)Nc2cc(Cl)ccc21` [Example 110, (3′R, 4′S,5′R)-6″-chloro-4′-(2-chloro-3-fluoropyridin-4-yl)-4,4-dimethyl-N-[(3R,6S)-6-(morpholin-4-ylcarbonyl)tetrahydro-2H-pyran-3-yl]-2″-oxo-1″,2″-dihydrodispiro[cyclohexane-1,2′-pyrrolidine-3′,3″-indole]-5′-carboxamide], in assay [1], the IC50 fell in the range of 1 to 50 nM. In assay [2], the GI50 is less than 100 nM.
For `CC1(C)CCC2(CC1)N[C@@H](C(=O)NC1(C)CC[C@@H](C(=O)O)OC1)[C@H](c1ccnc(Cl)c1F)[C@]21C(=O)Nc2cc(Cl)ccc21` (stereo partly drawn) [Example 188, (2S)-5-({[(3′R, 4′S,5′R)-6″-chloro-4′-(2-chloro-3-fluoropyridin-4-yl)-4,4-dimethyl-2″-oxo-1″,2″-dihydrodispiro[cyclohexane-1,2′-pyrrolidine-3′,3″-indole]-5′-yl]carbonyl}amino)-5-methyltetrahydro-2H-pyran-2-carboxylic acid] the same measures were 1 to 50 nM and 100 to 500 nM.
